From patent US6958345B2, “2-hydroxymethylcyclopropylidene methylpurines and -pyrimidines as antiviral agents” (The Regents of the University of Michigan, priority 1997, dated 2005)

System: HHV-6
Assay: HHV-6 ELISA in HSB-2 cells
Type: cell-based, human herpes virus 6 (HHV 6)
Conditions: Homo sapiens, HSB2
Protocol: (c) HHV-6. In this case, enzyme-linked immunosorbent assay (ELISA) was performed in covalent amine plates (Costar, Cambridge, Mass.). The plates were activated by the addition of a homobifunctional crosslinking agent, bis(sulfosuccinimidyl) suberate, which was dissolved at 1 mg/mL in 30 mL of phosphate buffered saline (PBS: 137 mM NaCl, 2.7 mM KCl, 4.3 mM Na2HPO4, 1.4 mM KH2PO4, pH 7.4) and 300 μL of the crosslinker was added to each well in the covalent plate. The crosslinker reacted with the amine function on the plate for 30 min at room temperature. The byproduct, sodium N-hydroxysuccinimide sulfite, was removed by decanting and washing the plate twice with PBS. Samples consisting of 150 μl of mixed suspended HSB2 cells from the original drug-treated plate were solubilized in an equal volume of 10% Triton X-100 in coating buffer (15 mM Na2CO3, […] NaHCO3, pH 9.6). The plate was covered and then incubated for 1 h at 37° C. in a 5% CO2 atmosphere. These binding conditions facilitated covalent attachment of the antigen to the free end of the crosslinker.
After covalent binding, the antigen solution was decanted and the plate was washed six times in HEPES buffered saline (Shipman, C., Jr., Proc. Soc. Exp. Biol. 130:305-310 (1969)) with 0.05% Tween 20 (HBS-T ), soaking for three min for each wash. […] Absorbance in each well was determined at 450/570 nm.

IC50: 15 µM
SMILES: O=C(O)P(=O)(O)O [Foscarnet, reference compound]
